In patent publication US9220725B2, “Cationic latex as a carrier for bioactive ingredients and methods for making and using the same” (priority 2006, dated 2015):
Read-outs that look alike come from different tables or passages of the source.

Columns and labels:
[1] = system: fungal species; test: 30-III fungal test on 1"X1" chip of dried latex, growth observed after 7 days; type: cell-based; conditions: 7 day incubation
Experimental: The results observed in the G-21 study were also duplicated in a shorter (7 day incubation) fungal study (referred to herein as 30-III).
The 30-III fungal test was based on making a 1″X1″ chip of the dried latex and inoculating the fungal species directly on to the sample and then observing its growth after 7 days. This is not as rigorous a test as the G-21 test, but gave a quick indication of the efficacy of the additives.

[2] = system: fungal species; test: ASTM D-3273 on coated paper, increased coating thickness, spores in humidity chamber, 28 days; type: cell-based
Experimental: A second round of testing was performed using an increased coating thickness to ensure full coverage of the paper surface. The second round of testing of the coated paper samples were tested according to ASTM D-3273. In this study, the duration remained the same (28 days), but the fungal species were not directly inoculated on the surface. Rather, they were maintained in the humidity chamber as spores that would then land on the surface of the coated paper as in a real world example. The results of this study are outlined in FIG. 3.

[3] = Solubility of additives used in polymerization; type: physicochemical
[4] = Stability of additive during polymerization; type: physicochemical; conditions: incorporated in relatively high amounts
From the text: Ideally, the materials are substantially unreactive during the polymerization conditions, so they are not degraded during polymerization. In some embodiments, low levels of additive might be observed, whether due to degradation, or difficulty in extraction from the polymer latex. In any case, retention of the additive in the latex leads to retention of antifungal properties in the finished paper.
The polymerization temperature was investigated as a potential contributor to degradation, and it was kept as low as was feasible (typically <70° C.). The samples were stripped at the end of polymerization to the desired solids content.

Compound	antifungal performance [1]	antifungal performance [2]	Solubility ([3]; in monomer where given)	Solubility [3]	further results
Cc1ccc(S(=O)(=O)C(I)I)cc1 [Amical AF, Diiodomethyltoluyl sulfone]	some fungal inhibition	effective	Limited		degradation during polymerization [4]: degraded
[Na+].[O-]c1ccccc1-c1ccccc1 [Microban P2, Sodium orthophenyl phenate]					Solubility ([3]; in water): soluble
CCCC1COC(Cn2cncn2)(c2ccc(Cl)cc2Cl)O1 (centres unmarked) [Microban PZ, Propiconazole]				Fairly soluble	
CC(C)(C)C(O)(CCc1ccc(Cl)cc1)Cn1cncn1 (centres unmarked) [Microban TZ, Tebuconazole]				Fairly soluble	
Oc1cc(Cl)ccc1Oc1ccc(Cl)cc1Cl [Triclosan, Chlorodiphenyl ether, reference compound]			Solid. Fairly		
Zinc pyrithione [Microban Z01]	performed well	did not perform well	Insoluble in		
